According to the kinase profiling compilation of Christmann-Franck et al. (2016):
“And” between values parts separate entries of the source, which are not always exact repeats. Equal entries are not always repeated.

Columns and labels:
Assay in all cases: radiometric filter-binding kinase assay, Kinase HotSpot
Details in all cases: compound 0.5 µM; ATP 10 µM
AKT2 (human) = AKT2 (human) (UniProt P31751)
BMX (human) = BMX (human) (UniProt P51813)
BRSK1 (human) = BRSK1 (human) (UniProt Q8TDC3)
CAMK2D (human) = CAMK2D (human) (UniProt Q13557)
CDC42BPB (human) = CDC42BPB (human) (UniProt Q9Y5S2)
CDK4 CCND1 (human) = CDK4 CCND1 (human) (UniProt P24385+P11802)
CLK2 (human) = CLK2 (human) (UniProt P49760)
CSK (human) = CSK (human) (UniProt P41240)
DAPK1 (human) = DAPK1 (human) (UniProt P53355)
Sequence of DAPK1 (human) (P53355 whole entry, looked up): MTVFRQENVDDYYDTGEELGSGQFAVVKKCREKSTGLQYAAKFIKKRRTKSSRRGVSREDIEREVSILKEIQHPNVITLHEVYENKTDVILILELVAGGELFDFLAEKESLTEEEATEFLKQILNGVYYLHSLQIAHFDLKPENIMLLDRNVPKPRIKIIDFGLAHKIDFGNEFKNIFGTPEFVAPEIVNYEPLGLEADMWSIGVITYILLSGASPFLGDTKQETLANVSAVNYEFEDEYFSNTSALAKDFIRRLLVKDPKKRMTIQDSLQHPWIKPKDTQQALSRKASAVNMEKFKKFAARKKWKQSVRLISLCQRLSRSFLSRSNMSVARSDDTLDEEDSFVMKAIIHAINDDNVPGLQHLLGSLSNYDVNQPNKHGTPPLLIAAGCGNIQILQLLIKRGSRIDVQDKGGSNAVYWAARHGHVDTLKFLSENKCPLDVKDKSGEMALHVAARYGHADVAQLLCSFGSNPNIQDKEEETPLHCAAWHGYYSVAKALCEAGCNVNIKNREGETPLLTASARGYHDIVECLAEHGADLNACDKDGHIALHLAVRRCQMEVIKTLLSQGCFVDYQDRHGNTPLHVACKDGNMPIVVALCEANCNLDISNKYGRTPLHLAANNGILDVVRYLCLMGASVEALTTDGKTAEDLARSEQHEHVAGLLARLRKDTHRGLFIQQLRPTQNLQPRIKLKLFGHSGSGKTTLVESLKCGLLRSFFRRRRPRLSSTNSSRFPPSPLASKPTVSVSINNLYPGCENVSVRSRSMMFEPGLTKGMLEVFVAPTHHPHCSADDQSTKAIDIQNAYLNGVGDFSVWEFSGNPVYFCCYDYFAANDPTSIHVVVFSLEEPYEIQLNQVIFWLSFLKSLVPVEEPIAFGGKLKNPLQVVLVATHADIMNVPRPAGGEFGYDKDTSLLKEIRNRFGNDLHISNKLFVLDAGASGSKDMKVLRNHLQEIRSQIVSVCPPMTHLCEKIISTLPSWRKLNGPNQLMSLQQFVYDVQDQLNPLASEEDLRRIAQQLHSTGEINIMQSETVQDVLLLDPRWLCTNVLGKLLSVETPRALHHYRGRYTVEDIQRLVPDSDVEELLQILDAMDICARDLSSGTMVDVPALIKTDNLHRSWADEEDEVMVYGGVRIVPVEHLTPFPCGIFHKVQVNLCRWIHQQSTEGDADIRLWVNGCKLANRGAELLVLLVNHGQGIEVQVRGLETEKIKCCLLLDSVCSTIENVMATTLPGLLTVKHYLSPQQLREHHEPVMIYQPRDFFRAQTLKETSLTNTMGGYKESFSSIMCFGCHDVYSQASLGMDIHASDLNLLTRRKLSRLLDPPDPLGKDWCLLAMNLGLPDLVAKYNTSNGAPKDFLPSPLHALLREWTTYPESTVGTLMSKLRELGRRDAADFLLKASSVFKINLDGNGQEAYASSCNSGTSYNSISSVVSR

DMPK (human) = DMPK (human) (UniProt Q09013)
EPHA4 (human) = EPHA4 (human) (UniProt P54764)
Sequence of EPHA4 (human) (P54764 whole entry, looked up): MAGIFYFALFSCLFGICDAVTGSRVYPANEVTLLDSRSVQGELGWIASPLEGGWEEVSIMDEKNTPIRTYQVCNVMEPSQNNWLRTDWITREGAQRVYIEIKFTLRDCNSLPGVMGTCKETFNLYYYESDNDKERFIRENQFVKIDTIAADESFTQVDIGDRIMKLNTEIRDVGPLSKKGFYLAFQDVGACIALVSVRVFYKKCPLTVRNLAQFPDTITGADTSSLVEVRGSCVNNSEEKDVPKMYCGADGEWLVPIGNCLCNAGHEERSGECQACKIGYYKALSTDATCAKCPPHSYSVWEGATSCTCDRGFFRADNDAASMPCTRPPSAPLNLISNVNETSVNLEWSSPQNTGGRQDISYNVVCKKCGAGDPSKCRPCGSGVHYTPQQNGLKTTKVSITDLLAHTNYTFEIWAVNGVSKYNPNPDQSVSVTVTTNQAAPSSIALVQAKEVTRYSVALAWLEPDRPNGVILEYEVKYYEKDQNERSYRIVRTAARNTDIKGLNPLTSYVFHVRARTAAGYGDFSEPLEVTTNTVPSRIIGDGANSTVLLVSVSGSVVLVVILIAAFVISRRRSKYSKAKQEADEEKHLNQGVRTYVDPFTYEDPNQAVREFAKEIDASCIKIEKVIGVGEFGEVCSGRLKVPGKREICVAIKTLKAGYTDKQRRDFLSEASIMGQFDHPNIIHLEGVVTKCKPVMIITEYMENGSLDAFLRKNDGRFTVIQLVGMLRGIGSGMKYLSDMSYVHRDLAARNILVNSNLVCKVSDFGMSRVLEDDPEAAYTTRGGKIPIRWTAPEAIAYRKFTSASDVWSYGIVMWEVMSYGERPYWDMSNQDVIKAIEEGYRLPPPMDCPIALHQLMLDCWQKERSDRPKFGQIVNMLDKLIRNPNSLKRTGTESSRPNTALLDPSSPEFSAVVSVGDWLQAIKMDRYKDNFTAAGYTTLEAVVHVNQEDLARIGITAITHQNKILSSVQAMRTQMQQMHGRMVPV

EPHB1 (human) = EPHB1 (human) (UniProt P54762)
Sequence of EPHB1 (human) (P54762 whole entry, looked up): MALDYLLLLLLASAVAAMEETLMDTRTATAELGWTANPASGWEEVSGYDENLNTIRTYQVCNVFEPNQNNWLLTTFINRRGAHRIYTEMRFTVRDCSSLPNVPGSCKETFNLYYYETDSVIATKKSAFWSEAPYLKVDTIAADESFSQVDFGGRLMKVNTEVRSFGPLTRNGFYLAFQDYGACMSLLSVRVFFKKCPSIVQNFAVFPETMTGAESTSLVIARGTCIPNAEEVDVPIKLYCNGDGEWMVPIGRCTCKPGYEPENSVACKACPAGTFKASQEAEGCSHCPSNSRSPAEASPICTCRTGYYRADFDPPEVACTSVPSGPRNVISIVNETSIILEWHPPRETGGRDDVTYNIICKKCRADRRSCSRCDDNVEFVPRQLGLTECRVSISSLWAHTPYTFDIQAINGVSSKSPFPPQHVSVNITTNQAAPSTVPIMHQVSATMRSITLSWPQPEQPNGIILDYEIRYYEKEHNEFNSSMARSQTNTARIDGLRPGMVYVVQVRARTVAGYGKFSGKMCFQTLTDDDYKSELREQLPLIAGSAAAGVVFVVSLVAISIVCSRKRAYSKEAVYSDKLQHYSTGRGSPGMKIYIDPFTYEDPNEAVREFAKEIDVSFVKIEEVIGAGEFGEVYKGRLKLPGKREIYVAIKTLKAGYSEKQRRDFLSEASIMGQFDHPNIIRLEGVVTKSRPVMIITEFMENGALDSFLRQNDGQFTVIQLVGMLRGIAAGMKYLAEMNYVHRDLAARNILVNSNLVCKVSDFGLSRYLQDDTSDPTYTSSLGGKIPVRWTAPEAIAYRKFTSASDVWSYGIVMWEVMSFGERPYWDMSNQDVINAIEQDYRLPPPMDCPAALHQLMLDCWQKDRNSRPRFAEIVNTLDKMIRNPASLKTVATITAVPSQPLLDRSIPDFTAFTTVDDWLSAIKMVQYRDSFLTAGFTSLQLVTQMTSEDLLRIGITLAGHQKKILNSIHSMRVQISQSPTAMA

GRK6 (human) = GRK6 (human) (UniProt P43250)
GSG2 (human) = GSG2 (human) (UniProt Q8TF76)
IKBKE (human) = IKBKE (human) (UniProt Q14164)
Sequence of IKBKE (human) (Q14164 whole entry, looked up): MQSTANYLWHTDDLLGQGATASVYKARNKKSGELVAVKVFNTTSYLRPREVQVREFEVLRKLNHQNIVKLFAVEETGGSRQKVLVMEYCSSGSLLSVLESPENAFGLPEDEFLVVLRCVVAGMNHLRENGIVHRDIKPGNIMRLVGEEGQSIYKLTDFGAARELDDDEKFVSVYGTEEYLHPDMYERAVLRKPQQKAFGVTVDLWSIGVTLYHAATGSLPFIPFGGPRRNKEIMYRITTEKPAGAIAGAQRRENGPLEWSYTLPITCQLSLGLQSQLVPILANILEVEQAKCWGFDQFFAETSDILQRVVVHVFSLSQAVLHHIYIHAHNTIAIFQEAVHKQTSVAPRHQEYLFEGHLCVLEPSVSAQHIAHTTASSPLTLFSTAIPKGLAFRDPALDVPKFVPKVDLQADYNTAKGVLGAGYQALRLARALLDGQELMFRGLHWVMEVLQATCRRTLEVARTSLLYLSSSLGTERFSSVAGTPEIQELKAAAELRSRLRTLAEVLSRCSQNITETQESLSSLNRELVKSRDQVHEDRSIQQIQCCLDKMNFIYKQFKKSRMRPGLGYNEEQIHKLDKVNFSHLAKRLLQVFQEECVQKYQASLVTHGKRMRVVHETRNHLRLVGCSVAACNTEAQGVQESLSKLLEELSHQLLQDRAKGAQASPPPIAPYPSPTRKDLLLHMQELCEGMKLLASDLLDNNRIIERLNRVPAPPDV

LCK (human) = LCK (human) (UniProt P06239)
LIMK1 (human) = LIMK1 (human) (UniProt P53667)
MAP2K1 (human) = MAP2K1 (human) (UniProt Q02750)
MAP3K7 TAB1 (human) = MAP3K7 TAB1 (human) (UniProt O43318+Q15750)
MLTK (human) = MLTK (human) (UniProt Q9NYL2)
MYO3B (human) = MYO3B (human) (UniProt Q8WXR4)
NEK2 (human) = NEK2 (human) (UniProt P51955)
NEK9 (human) = NEK9 (human) (UniProt Q8TD19)
NTRK3 (human) = NTRK3 (human) (UniProt Q16288)
NUAK2 (human) = NUAK2 (human) (UniProt Q9H093)
PBK (human) = PBK (human) (UniProt Q96KB5)
PRKCB1 (human) = PRKCB1 (human) (UniProt P05771)
PRKCD (human) = PRKCD (human) (UniProt Q05655)
PRKCE (human) = PRKCE (human) (UniProt Q02156)
PRKD3 (human) = PRKD3 (human) (UniProt O94806)
PRKG1 (human) = PRKG1 (human) (UniProt Q13976)
PRKG2 (human) = PRKG2 (human) (UniProt Q13237)
ROCK1 (human) = ROCK1 (human) (UniProt Q13464)
RPS6KA5 KD2 (human) = RPS6KA5 KD2 (human) (UniProt O75582)
SGK2 (human) = SGK2 (human) (UniProt Q9HBY8)
SLK (human) = SLK (human) (UniProt Q9H2G2)
SRMS (human) = SRMS (human) (UniProt Q9H3Y6)
Sequence of SRMS (human) (Q9H3Y6 whole entry, looked up): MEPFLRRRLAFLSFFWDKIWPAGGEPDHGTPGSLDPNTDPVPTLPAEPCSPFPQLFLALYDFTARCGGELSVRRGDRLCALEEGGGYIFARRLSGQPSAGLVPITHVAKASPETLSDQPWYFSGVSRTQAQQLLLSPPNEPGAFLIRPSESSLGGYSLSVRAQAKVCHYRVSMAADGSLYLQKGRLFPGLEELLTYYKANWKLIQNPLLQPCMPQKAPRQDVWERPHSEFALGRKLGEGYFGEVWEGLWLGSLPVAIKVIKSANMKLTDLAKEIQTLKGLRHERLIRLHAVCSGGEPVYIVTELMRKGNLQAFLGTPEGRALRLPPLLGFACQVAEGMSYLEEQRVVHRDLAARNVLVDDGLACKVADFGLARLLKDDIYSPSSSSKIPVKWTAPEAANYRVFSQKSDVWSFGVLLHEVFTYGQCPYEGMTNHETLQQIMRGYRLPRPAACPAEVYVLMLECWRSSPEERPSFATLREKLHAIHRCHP

STK4 (human) = STK4 (human) (UniProt Q13043)
TAOK1 (human) = TAOK1 (human) (UniProt Q7L7X3)
TTK (human) = TTK (human) (UniProt P33981)
VRK1 (human) = VRK1 (human) (UniProt Q99986)
Sequence of VRK1 (human) (Q99986 whole entry, looked up): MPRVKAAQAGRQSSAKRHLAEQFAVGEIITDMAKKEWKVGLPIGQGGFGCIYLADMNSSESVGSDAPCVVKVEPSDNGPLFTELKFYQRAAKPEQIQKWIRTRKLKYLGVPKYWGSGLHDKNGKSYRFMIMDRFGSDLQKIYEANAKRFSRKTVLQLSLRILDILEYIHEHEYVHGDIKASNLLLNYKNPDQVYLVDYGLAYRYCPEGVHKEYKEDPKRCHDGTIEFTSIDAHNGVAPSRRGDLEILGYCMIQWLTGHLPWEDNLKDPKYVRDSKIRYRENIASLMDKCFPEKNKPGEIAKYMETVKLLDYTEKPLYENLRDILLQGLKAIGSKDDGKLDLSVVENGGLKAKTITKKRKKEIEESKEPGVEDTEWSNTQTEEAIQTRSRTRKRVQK

YES1 (human) = YES1 (human) (UniProt P07947)

In the case of `N#CC(C#N)=C(N)/C(C#N)=C/c1ccc(O)cc1`, the residual activity (AKT2 (human)) is reported as 92.8%, the residual activity (BMX (human)) is reported as 80% and the residual activity (BRSK1 (human)) is reported as 99.2%. For the same compound, the residual activity (CAMK2D (human)) was 91.1%, the residual activity (CDC42BPB (human)) was 109% and the residual activity (CDK4 CCND1 (human)) was 100%. The residual activity (CLK2 (human)) was 100%, the residual activity (CSK (human)) was 97.6% and the residual activity (DAPK1 (human)) was 92.7%. For the same compound, the residual activity (DMPK (human)) was 101%, the residual activity (EPHA4 (human)) was 96% and the residual activity (EPHB1 (human)) was 88.3%. For the same compound, the residual activity (GRK6 (human)) was 107%, the residual activity (GSG2 (human)) was 90.1% and the residual activity (IKBKE (human)) was 91%. It also gave a residual activity (LCK (human)) of 95.1%, a residual activity (LIMK1 (human)) of 89.9% and a residual activity (MAP2K1 (human)) of 93.7%. For the same compound, the residual activity (MAP3K7 TAB1 (human)) was 94.8%, the residual activity (MLTK (human)) was 95.7% and the residual activity (MYO3B (human)) was 88.1%. For the same compound, the residual activity (NEK2 (human)) was 102%, the residual activity (NEK9 (human)) was 97.9% and the residual activity (NTRK3 (human)) was 95.5%. The residual activity (NUAK2 (human)) was 122%, the residual activity (PBK (human)) was 96.4% and the residual activity (PRKCB1 (human)) was 114%. The residual activity (PRKCD (human)) was 93.7%, the residual activity (PRKCE (human)) was 89.3% and the residual activity (PRKD3 (human)) was 91.9%. The residual activity (PRKG1 (human)) was 89.5% and 91.3%, the residual activity (PRKG2 (human)) was 86.9% and the residual activity (ROCK1 (human)) was 100%. For the same compound, the residual activity (RPS6KA5 KD2 (human)) was 96.7%, the residual activity (SGK2 (human)) was 110% and the residual activity (SLK (human)) was 102%. For the same compound, the residual activity (SRMS (human)) was 107%, the residual activity (STK4 (human)) was 99.1% and the residual activity (TAOK1 (human)) was 93.2%. The residual activity (TTK (human)) was 94.4%, the residual activity (VRK1 (human)) was 103% and the residual activity (YES1 (human)) was 100%.
`Oc1cccc(-c2nc(N3CCOCC3)c3oc4ncccc4c3n2)c1` gave a residual activity (AKT2 (human)) of 99.1%, a residual activity (BMX (human)) of 101% and a residual activity (BRSK1 (human)) of 91.1%. It also gave a residual activity (CAMK2D (human)) of 96.2%, a residual activity (CDC42BPB (human)) of 99.4% and a residual activity (CDK4 CCND1 (human)) of 102%. It also gave a residual activity (CLK2 (human)) of 88%, a residual activity (CSK (human)) of 88.3% and a residual activity (DAPK1 (human)) of 78%. The residual activity (DMPK (human)) was 99.5%, the residual activity (EPHA4 (human)) was 96.4% and the residual activity (EPHB1 (human)) was 89.6%. It also gave a residual activity (GRK6 (human)) of 98.2%, a residual activity (GSG2 (human)) of 90.3% and a residual activity (IKBKE (human)) of 98.8%. It also gave a residual activity (LCK (human)) of 98%, a residual activity (LIMK1 (human)) of 93.7% and a residual activity (MAP2K1 (human)) of 97.7%. The residual activity (MAP3K7 TAB1 (human)) was 97.4%, the residual activity (MLTK (human)) was 96.2% and the residual activity (MYO3B (human)) was 81.3%. It also gave a residual activity (NEK2 (human)) of 88.6%, a residual activity (NEK9 (human)) of 99.3% and a residual activity (NTRK3 (human)) of 91.1%. The residual activity (NUAK2 (human)) was 75.3%, the residual activity (PBK (human)) was 88.7% and the residual activity (PRKCB1 (human)) was 97.8%. For the same compound, the residual activity (PRKCD (human)) was 96%, the residual activity (PRKCE (human)) was 100% and the residual activity (PRKD3 (human)) was 92.9%. The residual activity (PRKG1 (human)) was 109% and 96.3%, the residual activity (PRKG2 (human)) was 89.2% and the residual activity (ROCK1 (human)) was 94.9%. For the same compound, the residual activity (RPS6KA5 KD2 (human)) was 86.5%, the residual activity (SGK2 (human)) was 96.7% and the residual activity (SLK (human)) was 101%. The residual activity (SRMS (human)) was 96.2%, the residual activity (STK4 (human)) was 93.3% and the residual activity (TAOK1 (human)) was 91.6%. For the same compound, the residual activity (TTK (human)) was 93.3%, the residual activity (VRK1 (human)) was 98.4% and the residual activity (YES1 (human)) was 94.3%.
`CO[C@H]1CC2CC[C@@H](C)[C@@](O)(O2)C(=O)C(=O)N2CCCC[C@H]2C(=O)OC([C@H](C)C[C@@H]2CC[C@@H](O)[C@H](OC)C2)CC(=O)[C@H](C)/C=C(\C)[C@@H](O)[C@@H](OC)C(=O)[C@H](C)C[C@H](C)/C=C/C=C/C=C/1C` (stereo partly drawn) showed a residual activity (AKT2 (human)) of 96.1%, a residual activity (BMX (human)) of 96.6% and a residual activity (BRSK1 (human)) of 99.9%. The residual activity (CAMK2D (human)) was 96.1%, the residual activity (CDC42BPB (human)) was 103% and the residual activity (CDK4 CCND1 (human)) was 115%. For the same compound, the residual activity (CLK2 (human)) was 102%, the residual activity (CSK (human)) was 101% and the residual activity (DAPK1 (human)) was 88.5%. It also gave a residual activity (DMPK (human)) of 109%, a residual activity (EPHA4 (human)) of 115% and a residual activity (EPHB1 (human)) of 110%. For the same compound, the residual activity (GRK6 (human)) was 103%, the residual activity (GSG2 (human)) was 103% and the residual activity (IKBKE (human)) was 99.4%. The residual activity (LCK (human)) was 99.4%, the residual activity (LIMK1 (human)) was 89.8% and the residual activity (MAP2K1 (human)) was 92.1%. For the same compound, the residual activity (MAP3K7 TAB1 (human)) was 95.2%, the residual activity (MLTK (human)) was 103% and the residual activity (MYO3B (human)) was 106%. For the same compound, the residual activity (NEK2 (human)) was 107%, the residual activity (NEK9 (human)) was 98.2% and the residual activity (NTRK3 (human)) was 103%. The residual activity (NUAK2 (human)) was 140%, the residual activity (PBK (human)) was 103% and the residual activity (PRKCB1 (human)) was 102%. For the same compound, the residual activity (PRKCD (human)) was 102%, the residual activity (PRKCE (human)) was 105% and the residual activity (PRKD3 (human)) was 95.6%. It also gave a residual activity (PRKG1 (human)) of 91%, a residual activity (PRKG2 (human)) of 91.9% and a residual activity (ROCK1 (human)) of 103%. For the same compound, the residual activity (RPS6KA5 KD2 (human)) was 106%, the residual activity (SGK2 (human)) was 101% and the residual activity (SLK (human)) was 98.7%. For the same compound, the residual activity (SRMS (human)) was 108%, the residual activity (STK4 (human)) was 106% and the residual activity (TAOK1 (human)) was 102%. For the same compound, the residual activity (TTK (human)) was 117%, the residual activity (VRK1 (human)) was 108% and the residual activity (YES1 (human)) was 101%.
With `CCC(=O)Nc1ccc2ncnc(Nc3cccc(Br)c3)c2c1` the residual activity (AKT2 (human)) was 102%, the residual activity (BMX (human)) was 98.7% and the residual activity (BRSK1 (human)) was 83.3%. It also gave a residual activity (CAMK2D (human)) of 113%, a residual activity (CDC42BPB (human)) of 114% and a residual activity (CDK4 CCND1 (human)) of 101%. For the same compound, the residual activity (CLK2 (human)) was 101%, the residual activity (CSK (human)) was 89.5% and the residual activity (DAPK1 (human)) was 99.4%. For the same compound, the residual activity (DMPK (human)) was 92%, the residual activity (EPHA4 (human)) was 94.3% and the residual activity (EPHB1 (human)) was 93.3%. It also gave a residual activity (GRK6 (human)) of 97.6%, a residual activity (GSG2 (human)) of 95.2% and a residual activity (IKBKE (human)) of 94.9%. For the same compound, the residual activity (LCK (human)) was 93.1%, the residual activity (LIMK1 (human)) was 88.7% and the residual activity (MAP2K1 (human)) was 105%. It also gave a residual activity (MAP3K7 TAB1 (human)) of 94%, a residual activity (MLTK (human)) of 96% and a residual activity (MYO3B (human)) of 135%. The residual activity (NEK2 (human)) was 87.5%, the residual activity (NEK9 (human)) was 105% and the residual activity (NTRK3 (human)) was 95.8%. For the same compound, the residual activity (NUAK2 (human)) was 77.4%, the residual activity (PBK (human)) was 96.2% and the residual activity (PRKCB1 (human)) was 99.2%. It also gave a residual activity (PRKCD (human)) of 93.8%, a residual activity (PRKCE (human)) of 99.7% and a residual activity (PRKD3 (human)) of 85.9%. For the same compound, the residual activity (PRKG1 (human)) was 101% and 110%, the residual activity (PRKG2 (human)) was 110% and the residual activity (ROCK1 (human)) was 99.5%. The residual activity (RPS6KA5 KD2 (human)) was 90%, the residual activity (SGK2 (human)) was 96.2% and the residual activity (SLK (human)) was 90%. For the same compound, the residual activity (SRMS (human)) was 99.4%, the residual activity (STK4 (human)) was 97.1% and the residual activity (TAOK1 (human)) was 79.1%. It also gave a residual activity (TTK (human)) of 113%, a residual activity (VRK1 (human)) of 94.4% and a residual activity (YES1 (human)) of 87%.
